Legend:
ptxD transgenic plants = assay: Growth or selection in media containing only phosphite as external source of phosphorus; type: in vivo, Arabidopsis thaliana
Protocol: (§1) The transformed Agrobacterium clone was used to transform Arabidopsis thaliana (ecotype Col-0) (generally described herein as “wild-type” (WT)) using a modified floral dip method. Transformed T0 progeny were selected using phosphinothricin resistance. In particular, screening was performed with MS 0.1× media containing phosphinothricin (20 mg/L). Twenty-eight resistant lines were identified through PCR amplification of the ptxD gene.
(§2) The ptxD transgenic plants were tested for their ability to grow in media containing only phosphite (e.g., about 0.1 to 5 mM) as an external source of phosphorus.
The ptxD expression construct also was used to provide a selectable marker for selection of transgenic plants with modified phosphorus metabolism. Wild-type Col-0 plants were transformed using Agrobacterium containing the ptxD expression construct. T0 progeny (seeds) were plated on a medium with phosphite (5 mM) as the source of phosphorus.

[1] = test system: transgenic tobacco homozygous for the 35S::PtxD gene; assay: Tobacco seedling growth in MS media with phosphate or phosphite as only phosphorus source; type: in vivo, Nicotiana tabacum; conditions: for seedling growth: MS media, 25 days after germination, FIG. 13
Protocol: (§3) Nicotiana tabacum was transformed with the expression construct described in Example 1. In particular, tobacco leaf explants were co-cultivated with an Agrobacterium strain harboring a 35S::PtxD construct (Example 1) within its T-DNA. Leaf discs were allowed to regenerate in MS media containing 1 mM phosphite as the only phosphorus source. Plants regenerated from these leaf discs on phosphite-containing media were transferred to soil and allowed to set seed under greenhouse conditions.
(§4) The presence or absence of growth (after depletion of seed-furnished phosphorus) is indicated by a plus (+) or a minus (−) symbol, respectively.
(§5) Seedlings were germinated and maintained in MS media supplemented with 1 mM phosphite as the only phosphorus source for 25 days. The seedlings then were transferred to tissue culture flasks containing MS with 1 mM phosphite as the only phosphorus source and were allowed to grow for 25 additional days in a plant growth chamber at 23° C., with a photoperiod of 18 h light, followed by 6 h darkness for each 24-hour period.

[2] = test system: control tobacco seedlings; assay: as above; type: in vivo, Nicotiana tabacum
Protocol: as §3, §4, §5

[3] = test system: ptxD transgenic (PTXD) plants; assay: Growth and dry weight on sand:vermiculite substrate with phosphate or phosphite; type: in vivo, Arabidopsis thaliana; conditions: sand:vermiculite (1:1)
Protocol: (§6) FIGS. 10 and 11 show photographs of parental and ptxD transgenic plants distributed according to FIG. 9 and tested for growth on a substrate containing added phosphate (Pi) (FIG. 10) or phosphite (Phi) (FIG. 11) as the source of phosphorus. […] The plants here and in FIG. 11 were grown in a sand:vermiculite mixture (1:1) and received water and nutrient solutions (lacking any other phosphorus source except as previously indicated) periodically.
(§7) The dry weight of three plants cultivated in sand:vermiculite (1:1) as substrate is plotted in the figure with respect to each particular plant line and source(s) of phosphorus.

parental (WT) plants = assay: as above; type: in vivo, Arabidopsis thaliana; conditions: sand:vermiculite (1:1)
Protocol: as §6, §7

[4] = test system: Control plants (wild-type Col-0); assay: Growth in media containing only phosphite as external source of phosphorus; type: in vivo, Arabidopsis thaliana; conditions: only phosphite (about 0.1 to 5 mM) as external source of phosphorus
Protocol: as §1, §2

[5] = test system: transgenic PTXD-3 and PTXD-5 lines; assay: Growth on liquid growth medium with phosphite or phosphate as phosphorus source; type: in vivo, Arabidopsis thaliana
Protocol: Two transgenic Arabidopsis lines, dubbed PTXD-3 and PTXD-5, were prepared and isolated as described in Example 1. Each line is homozygous for the ptxD expression construct of Example 1.
(§8) The parental line and the PTXD-3 and PTXD-5 transgenic lines were tested for the ability to grow on a liquid medium, with or without inorganic phosphate (Pi) as the source of phosphorus. Seeds from the parental and transgenic lines were germinated in liquid media and tested for growth.
(§9) In FIG. 7, the absence or presence of sustained plant growth (beyond the germination stage) is identified with a minus (−) or a plus (+) symbol, respectively. […] Therefore, the transgenic lines acquired the ability to metabolize phosphite as a phosphorus source to support plant growth.

[6] = test system: transgenic plants (PTXD-3 and PTXD-5); assay: Reduction of total phosphorus in growth medium containing phosphite (vanadium-molybdate method); type: in vivo, Arabidopsis thaliana; conditions: initially 50, 100 or 1000 μM phosphite; 45 days; 100 plants per container; FIG. 8
Source text: Wild type and the two transgenic Arabidopsis lines, PTXD-3 and PTXD-5, were germinated and cultivated in one-liter plastic containers with 0.1× Murashige and Skoog liquid medium lacking phosphate and supplemented with either 50, 100 or 1000 micromolar phosphorous acid (H3PO3). One hundred plants per plastic container were allowed to grow for 45 days in the plastic container in a growth chamber with a 16:8 light:dark cycle for each 24-hour period. The plants were covered to avoid moisture loss. A double layer of plastic mesh was placed where seeds were sown to germinate on top of liquid media in each plastic container.
After 45 days of growth the total phosphorus content was determined in the liquid media, after removing the plants, using a vanadium-molybdate method. Briefly, 5 mL of liquid media from each sample was digested with nitric acid:perchloric acid (HNO3:HClO4; 5:1). Then, the phosphorus content was determined with a colorimetric method based on the addition of a solution of ammonium molybdate (20 mM) and ammonium metavanadate (10 mM) in 70% perchloric acid. After a 20-minute incubation at room temperature, the absorbance at 400 nm was measured with a spectrophotometer.
In FIG. 8, the first three bars labeled as “initial” represent the initial concentration of total phosphorus in the media without plants. […]

parental (WT) line Col-0 = assay: Growth on liquid growth medium with phosphite or phosphate as phosphorus source; type: in vivo, Arabidopsis thaliana
Protocol: as §8, §9

[7] = MS with 1 mM phosphite as only phosphorus source, 25 days plus 25 additional days, FIG. 14
[8] = 50, 100, and 1000 μM inorganic phosphite as phosphorus source, FIG. 7
[9] = 50 μM inorganic phosphate, FIG. 7

SMILES | growth of T0 progeny relative to wild type plants (ptxD transgenic plants; medium with phosphite (5 mM) as the source of phosphorus, FIG. 6) | growth (ptxD transgenic plants; only phosphite (about 0.1 to 5 mM) as external source of phosphorus) | seedling growth ([1]; 1 mM Phi as only phosphorus source) | growth [1, 7] | seedling growth ([2]; MS media, 1 mM Phi as only phosphorus source, 25 days after germination, FIG. 13) | growth and development [2, 7] | growth (dry weight of three plants) on phosphite relative to phosphate ([3]; FIG. 12) | sustained growth on substrate ([3]; added phosphite (Phi), FIG. 11) | sustained growth on substrate (parental (WT) plants; added phosphite (Phi), FIG. 11) | growth (dry weight of three plants) (parental (WT) plants; phosphite as the source of phosphorus, FIG. 12) | growth [4] | growth [5, 8] | decrease of phosphorus content in the media (removal of phosphite) [6] | growth (parental (WT) line Col-0; [8]) | seedling growth ([1]; 1 mM Pi as only phosphorus source) | growth [5, 9] | growth ([5]; 50, 100, and 1000 μM phosphate) | growth (parental (WT) line Col-0; [9]) | growth (parental (WT) line Col-0; 50, 100, and 1000 μM phosphate)
OP(O)O [phosphite, phosphorous acid (H3PO3)] | substantial growth advantage | grew efficiently | sustained growth | able to sustain rapid growth | unable to sustain normal growth | unable to use phosphite | grew similarly or better | only the transgenic plants were capable of sustained growth | only the transgenic plants were capable of sustained growth | did not grow substantially | no substantial growth | grew efficiently | more than 50% | but not the parental line | – | – | – | – | –
O=P(O)(O)O [phosphate, phosphoric acid (H3PO4)] | – | – | – | – | – | – | – | – | – | – | – | – | – | – | sustained growth | grew efficiently | grew efficiently | grew efficiently | grew efficiently
